Results on five molecules are retold here after patent US6743598B2, “Methods for the identification of fungal glucose utilization inhibitors and antifungal agents” (priority 2001, dated 2004).

One assay addresses T. brucei PGI (Trypanosoma brucei brucei, UniProt P13377). Particulars: cited from earlier work.
The target in the next assay is Yeast PGI (Saccharomyces cerevisiae, UniProt P12709). As to conditions: cited from earlier work.
Assay [1] has as its target yeast phosphoglucose isomerase (Saccharomyces cerevisiae, UniProt P12709). As to conditions: cited from earlier work.
Assay [2] addresses T. brucei phosphoglucose isomerase (Trypanosoma brucei brucei, UniProt P13377). As to conditions: cited from earlier work.
In assay [3] the target is Rabbit phosphoglucose isomerase (Oryctolagus cuniculus, UniProt Q9N1E2). As to conditions: low ionic strength, cited from earlier work.
For assay [4], the system named is A. fumigatus phosphoglucose isomerase, ketol-isomerase, and N-acetyltransferase. In words: Colorimetric CoA(GlcNAc-6-P) formation assay in crude A. fumigatus lysates. As to conditions: added to crude A. fumigatus lysates, FIG. 5. It counts as biochemical, Aspergillus fumigatus. Here is the method:
A. fumigatus ATCC16424 (a human clinical isolate) was inoculated into liquid YG medium [1% (w/v) yeast extract and 1% (w/v) glucose] with 1×10^7 conidia per/mL (final concentration), and incubated for 18 hours at 37° C. with shaking (250 rpm). Hyphae were harvested by vacuum filtration over Whatman No. 2 filter paper, washed twice with ice-cold water, quick-frozen in dry ice, and stored at −80° C.
Frozen A. fumigatus hyphae were thawed and disrupted by bead-beating (6×30 seconds pulses with 2 minutes cooling between each pulse) using 0.5 mm zirconium beads in KI buffer (600 mM sucrose, 1 mM KCl, 1 mM EDTA, 50 mM PIPES, pH 6.8). The lysates were centrifuged at 1,000×g for 10 minutes at 4° C. The supernatants were stored at −80° C. and used as enzyme sources. The protein concentration of the supernatants was determined using the BioRad protein assay kit.
Reactions were performed in 96-well flat bottom microtiter plates containing 10 mM Glc-6-P, 10 mM glutamine, 200 μM AcCoA, and 0.25 mg/mL cell lysate of A. fumigatus at pH 6.8 in a final volume of 50 μL. […] After incubation for 10 minutes at room temperature, the OD412 was measured using a microtiter plate reader. […] The amount of CoA formed by reaction mixtures was calculated from the standard curve. […]

The next assay deals with Chitin synthase. As to conditions: competitive substrate inhibitors of chitin synthase; cited from earlier work.
The mark [5] stands for this setting: read-out: Fru-6-P Km, low ionic strength.
The mark [6] stands for this setting: competitive inhibitor, low ionic strength, read-out: Gluconate-6-P Ki.

Entries after “also recorded” stand apart in the source; their conditions may differ.

Chain of T. brucei PGI (P13377 whole entry): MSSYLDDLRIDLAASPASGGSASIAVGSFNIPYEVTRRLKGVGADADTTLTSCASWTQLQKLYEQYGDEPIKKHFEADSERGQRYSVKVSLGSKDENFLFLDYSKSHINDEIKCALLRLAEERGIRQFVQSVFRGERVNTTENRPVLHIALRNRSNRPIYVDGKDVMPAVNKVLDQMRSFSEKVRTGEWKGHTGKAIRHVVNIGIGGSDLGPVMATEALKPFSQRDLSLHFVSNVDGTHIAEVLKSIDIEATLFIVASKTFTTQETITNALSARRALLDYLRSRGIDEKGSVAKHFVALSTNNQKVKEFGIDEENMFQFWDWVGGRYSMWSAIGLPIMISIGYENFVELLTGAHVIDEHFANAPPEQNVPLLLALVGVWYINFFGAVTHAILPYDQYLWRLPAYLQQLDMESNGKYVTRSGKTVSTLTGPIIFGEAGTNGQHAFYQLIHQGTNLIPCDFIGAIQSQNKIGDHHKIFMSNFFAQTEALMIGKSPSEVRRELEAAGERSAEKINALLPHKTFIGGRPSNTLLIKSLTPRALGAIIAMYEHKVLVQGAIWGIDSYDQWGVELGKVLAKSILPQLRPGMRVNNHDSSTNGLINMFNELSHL
Chain of T. brucei phosphoglucose isomerase (P13377 whole entry): as above
Chain of Yeast PGI (P12709 2-554): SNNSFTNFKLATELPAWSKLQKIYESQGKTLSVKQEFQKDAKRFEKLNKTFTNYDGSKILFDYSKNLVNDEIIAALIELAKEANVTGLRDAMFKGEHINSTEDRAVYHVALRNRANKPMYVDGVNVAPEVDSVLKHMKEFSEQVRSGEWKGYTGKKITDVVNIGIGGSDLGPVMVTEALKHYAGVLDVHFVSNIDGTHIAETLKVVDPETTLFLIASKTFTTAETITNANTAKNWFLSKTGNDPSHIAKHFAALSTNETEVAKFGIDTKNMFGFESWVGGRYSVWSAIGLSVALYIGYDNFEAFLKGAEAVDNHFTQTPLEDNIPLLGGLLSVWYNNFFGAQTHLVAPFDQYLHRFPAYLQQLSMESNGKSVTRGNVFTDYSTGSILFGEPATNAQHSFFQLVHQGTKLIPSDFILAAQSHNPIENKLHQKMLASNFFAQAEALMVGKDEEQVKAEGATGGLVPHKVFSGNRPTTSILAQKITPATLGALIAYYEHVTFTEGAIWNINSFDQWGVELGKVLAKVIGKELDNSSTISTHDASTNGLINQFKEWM
Chain of yeast phosphoglucose isomerase (P12709 2-554): as above

As to `O=C(NO)[C@@H](O)[C@H](O)[C@H](O)COP(=O)(O)O` [D-Arabinohydroxamic acid-5-phosphate], on T. brucei PGI (T. brucei PGI), the inhibitory constant (Ki) is 0.05 ± 0.009 µM and the Km/Ki is 2060. Moreover, on T. brucei PGI (T. brucei versus yeast), the “specificity for T. brucei phosphoglucose isomerase versus yeast isomerase” value is recorded as 4.6 fold. Further, at Yeast PGI, the Ki was 0.23 ± 0.02 µM and the Km/Ki is reported as 300.
In the case of `O=C(CO)[C@@H](O)[C@H](O)[C@H](O)COP(=O)(O)O` [Fru-6-P, fructose-6-phosphate], the Km is 167 ± 48 µM in assay [1] (setting [5]), 122 ± 45 µM in assay [2] (setting [5]) and 119 ± 28 µM in assay [3] (read-out: Fru-6-P Km).
On to `O=C(O)[C@H](O)[C@@H](O)[C@H](O)[C@H](O)COP(=O)(O)O` [Gluconate-6-P, gluconate-6-phosphate], for which the Ki in assay [1] (setting [6]) was 480 ± 120 µM; in assay [2] (setting [6]), 140 ± 30 µM; in assay [3] (competitive inhibitor, read-out: Gluconate-6-P Ki) it was 120 ± 30 µM. Also, the “inhibition of CoA (GlcNAc-6-P) formation” value in assay [4] is recorded as “inhibited the formation of CoA (GlcNAc-6-P) in a dose-dependent manner; also recorded: inhibited the production of CoA in a dose dependent manner”.
As for polyoxins, the “inhibition constants (Ki)” value at Chitin synthase is listed as “in the μM range”.
For “uridine diphosphate-N-acetyl glucosamine [UDP-GlcNAc]”, the “inhibition of CoA (GlcNAc-6-P) formation” value in assay [4] is listed as “inhibited the formation of CoA (GlcNAc-6-P) in a dose-dependent manner; also recorded: inhibited the production of CoA in a dose dependent manner”.
